Results from PubChem BioAssay (NCI).
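Five concentrations, 48 hours, 96-well plates. Here, GI50 denotes the concentration required for 50% inhibition of growth. At the TGI there is no net growth.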

Experiments:
Experiment in all cases: inhibition of tumour cell growth, NCI panel, 48 h
ACHN renal = tested on: ACHN renal
SF-268 CNS = tested on: SF-268 CNS
LOX IMVI melanoma = tested on: LOX IMVI melanoma
U251 CNS = tested on: U251 CNS
NCI-H522 lung = tested on: NCI-H522 lung
TK-10 renal = tested on: TK-10 renal
SK-OV-3 ovarian = tested on: SK-OV-3 ovarian
HCT-15 colon = tested on: HCT-15 colon
HCC-2998 colon = tested on: HCC-2998 colon
RPMI-8226 leukemia = tested on: RPMI-8226 leukemia
OVCAR-8 ovarian = tested on: OVCAR-8 ovarian
T-47D breast = tested on: T-47D breast
HL-60(TB) leukemia = tested on: HL-60(TB) leukemia
NCI-H23 lung = tested on: NCI-H23 lung
NCI-H226 lung = tested on: NCI-H226 lung
HT29 colon = tested on: HT29 colon
M14 melanoma = tested on: M14 melanoma
786-0 renal = tested on: 786-0 renal
EKVX NSCLC = tested on: EKVX NSCLC
DU-145 prostate = tested on: DU-145 prostate
HOP-62 NSCLC = tested on: HOP-62 NSCLC
SNB-75 CNS = tested on: SNB-75 CNS
A498 renal = tested on: A498 renal
UO-31 renal = tested on: UO-31 renal
OVCAR-5 ovarian = tested on: OVCAR-5 ovarian
MOLT-4 leukemia = tested on: MOLT-4 leukemia
CAKI-1 renal = tested on: CAKI-1 renal
HS 578T breast = tested on: HS 578T breast
IGROV1 ovarian = tested on: IGROV1 ovarian
MALME-3M melanoma = tested on: MALME-3M melanoma
SF-295 CNS = tested on: SF-295 CNS
NCI-H460 lung = tested on: NCI-H460 lung
SW-620 colon = tested on: SW-620 colon
SNB-19 CNS = tested on: SNB-19 CNS
K-562 leukemia = tested on: K-562 leukemia
OVCAR-4 ovarian = tested on: OVCAR-4 ovarian
CCRF-CEM leukemia = tested on: CCRF-CEM leukemia
KM12 colon = tested on: KM12 colon
SK-MEL-2 melanoma = tested on: SK-MEL-2 melanoma
A549 NSCLC = tested on: A549 NSCLC
UACC-62 melanoma = tested on: UACC-62 melanoma
PC-3 prostate = tested on: PC-3 prostate
NCI/ADR-RES ovarian = tested on: NCI/ADR-RES ovarian
MDA-MB-435 = tested on: MDA-MB-435
RXF 393 renal = tested on: RXF 393 renal
SK-MEL-28 melanoma = tested on: SK-MEL-28 melanoma
UACC-257 melanoma = tested on: UACC-257 melanoma
MDA-MB-231 breast = tested on: MDA-MB-231 breast
BT-549 breast = tested on: BT-549 breast
HOP-92 NSCLC = tested on: HOP-92 NSCLC
MCF7 breast = tested on: MCF7 breast
HCT-116 colon = tested on: HCT-116 colon
SK-MEL-5 melanoma = tested on: SK-MEL-5 melanoma
SR leukemia = tested on: SR leukemia
COLO 205 colon = tested on: COLO 205 colon
SN12C renal = tested on: SN12C renal
SF-539 CNS = tested on: SF-539 CNS

For `O=C(NNc1nc2cc(F)ccc2n2c(CN3CCCC3)ccc12)c1cnccn1`, the GI50 (ACHN renal) was 0.899 µM, the TGI (ACHN renal) was over 100 µM and the GI50 (SF-268 CNS) was 1.38 µM. The TGI (SF-268 CNS) was 33.9 µM, the GI50 (LOX IMVI melanoma) was 0.893 µM and the TGI (LOX IMVI melanoma) was 11 µM. For the same molecule, the GI50 (U251 CNS) was 1.19 µM, the TGI (U251 CNS) was 14.6 µM and the GI50 (NCI-H522 lung) was 2.12 µM. For the same molecule, the TGI (NCI-H522 lung) was 5.55 µM, the GI50 (TK-10 renal) was 1.6 µM and the TGI (TK-10 renal) was 9.84 µM. For the same molecule, the GI50 (SK-OV-3 ovarian) was 1.67 µM, the TGI (SK-OV-3 ovarian) was 12.8 µM and the GI50 (HCT-15 colon) was 0.324 µM. For the same molecule, the TGI (HCT-15 colon) was 21.7 µM, the GI50 (HCC-2998 colon) was 3.51 µM and the TGI (HCC-2998 colon) was 27.8 µM. It also gave a GI50 (RPMI-8226 leukemia) of 0.955 µM, a TGI (RPMI-8226 leukemia) of 49.2 µM and a GI50 (OVCAR-8 ovarian) of 1 µM. For the same molecule, the TGI (OVCAR-8 ovarian) was 10.6 µM, the GI50 (T-47D breast) was 2.39 µM and the TGI (T-47D breast) was 48.2 µM. The GI50 (HL-60(TB) leukemia) was 1.43 µM, the TGI (HL-60(TB) leukemia) was 4.84 µM and the GI50 (NCI-H23 lung) was 2.45 µM. The TGI (NCI-H23 lung) was 18.5 µM, the GI50 (NCI-H226 lung) was 3.33 µM and the TGI (NCI-H226 lung) was 23.1 µM. The GI50 (HT29 colon) was 0.599 µM, the TGI (HT29 colon) was 14.1 µM and the GI50 (M14 melanoma) was 1.61 µM. For the same molecule, the TGI (M14 melanoma) was 12.1 µM, the GI50 (786-0 renal) was 2.07 µM and the TGI (786-0 renal) was 11.3 µM. It also gave a GI50 (EKVX NSCLC) of 1.01 µM, a TGI (EKVX NSCLC) of 16.2 µM and a GI50 (DU-145 prostate) of 1.49 µM. The TGI (DU-145 prostate) was 13 µM, the GI50 (HOP-62 NSCLC) was 0.613 µM and the TGI (HOP-62 NSCLC) was 6.3 µM. For the same molecule, the GI50 (SNB-75 CNS) was 3.72 µM, the TGI (SNB-75 CNS) was 30.9 µM and the GI50 (A498 renal) was 1.31 µM. It also gave a TGI (A498 renal) of 4.99 µM, a GI50 (UO-31 renal) of 0.375 µM and a TGI (UO-31 renal) of 9.57 µM. For the same molecule, the GI50 (OVCAR-5 ovarian) was 1.31 µM, the TGI (OVCAR-5 ovarian) was 16.1 µM and the GI50 (MOLT-4 leukemia) was 0.773 µM. For the same molecule, the TGI (MOLT-4 leukemia) was over 100 µM, the GI50 (CAKI-1 renal) was 1.61 µM and the TGI (CAKI-1 renal) was 18.1 µM. For the same molecule, the GI50 (HS 578T breast) was 4.55 µM, the TGI (HS 578T breast) was over 100 µM and the GI50 (IGROV1 ovarian) was 0.747 µM. The TGI (IGROV1 ovarian) was 11.5 µM, the GI50 (MALME-3M melanoma) was 2.81 µM and the TGI (MALME-3M melanoma) was 54.2 µM. It also gave a GI50 (SF-295 CNS) of 0.627 µM, a TGI (SF-295 CNS) of 15.8 µM and a GI50 (NCI-H460 lung) of 0.568 µM. It also gave a TGI (NCI-H460 lung) of 5.43 µM, a GI50 (SW-620 colon) of 1.93 µM and a TGI (SW-620 colon) of 16.7 µM. It also gave a GI50 (SNB-19 CNS) of 2.39 µM, a TGI (SNB-19 CNS) of 24.6 µM and a GI50 (K-562 leukemia) of 0.599 µM. It also gave a TGI (K-562 leukemia) of over 100 µM, a GI50 (OVCAR-4 ovarian) of 2.05 µM and a TGI (OVCAR-4 ovarian) of 55.8 µM. For the same molecule, the GI50 (CCRF-CEM leukemia) was 0.521 µM, the TGI (CCRF-CEM leukemia) was over 100 µM and the GI50 (KM12 colon) was 1.19 µM. The TGI (KM12 colon) was 16.5 µM, the GI50 (SK-MEL-2 melanoma) was 2.48 µM and the TGI (SK-MEL-2 melanoma) was 10.8 µM. The GI50 (A549 NSCLC) was 1.38 µM, the TGI (A549 NSCLC) was 12.2 µM and the GI50 (UACC-62 melanoma) was 2.62 µM. The TGI (UACC-62 melanoma) was 8.34 µM, the GI50 (PC-3 prostate) was 2.17 µM and the TGI (PC-3 prostate) was 19.8 µM. For the same molecule, the GI50 (NCI/ADR-RES ovarian) was 0.569 µM, the TGI (NCI/ADR-RES ovarian) was 6.32 µM and the GI50 (MDA-MB-435) was 3.95 µM. For the same molecule, the TGI (MDA-MB-435) was over 100 µM, the GI50 (RXF 393 renal) was 1.62 µM and the TGI (RXF 393 renal) was 7.56 µM. For the same molecule, the GI50 (SK-MEL-28 melanoma) was 3.4 µM, the TGI (SK-MEL-28 melanoma) was 21.4 µM and the GI50 (UACC-257 melanoma) was 2.14 µM. It also gave a TGI (UACC-257 melanoma) of 6.87 µM, a GI50 (MDA-MB-231 breast) of 2.3 µM and a TGI (MDA-MB-231 breast) of 20.2 µM. It also gave a GI50 (BT-549 breast) of 3.26 µM, a TGI (BT-549 breast) of 26 µM and a GI50 (HOP-92 NSCLC) of 2.6 µM. The TGI (HOP-92 NSCLC) was 28.9 µM, the GI50 (MCF7 breast) was 0.932 µM and the TGI (MCF7 breast) was 8.1 µM. For the same molecule, the GI50 (HCT-116 colon) was 0.725 µM, the TGI (HCT-116 colon) was 12.4 µM and the GI50 (SK-MEL-5 melanoma) was 2.81 µM. The TGI (SK-MEL-5 melanoma) was 8.1 µM, the GI50 (SR leukemia) was 0.416 µM and the TGI (SR leukemia) was over 100 µM. The GI50 (COLO 205 colon) was 1.62 µM, the TGI (COLO 205 colon) was 15.1 µM and the GI50 (SN12C renal) was 2.16 µM. For the same molecule, the TGI (SN12C renal) was over 100 µM, the GI50 (SF-539 CNS) was 1.49 µM and the TGI (SF-539 CNS) was 10.4 µM.
